According to patent US7514445B2, “Heteroaryl amines as glycogen synthase kinase 3β inhibitors (GSK3 inhibitors)” (Janssen Pharmaceutica N.V., priority 2001, dated 2009):

Target: GSK3β (Homo sapiens, UniProt P49841)
Assay: GSK3beta assay (SPA, phosphorylation of biotinylated phosphorylated CREB peptide, ATP-P33)
Assay type: biochemical
Settings: -log IC50 (M); 25° C., 19 nM GSK3β, 5 μM biotinylated phosphorylated CREB peptide, 1 μM ATP, one hour
Procedure: GSK3beta assays were performed at 25° C. in a 100 μl reaction volume of 25 mM Tris (pH 7.4) containing 10 mM MgCl2, 1 mM DTT, 0.1 mg/ml BSA, 5% glycerol and containing 19 nM GSK3β, 5 μM biotinylated phosphorylated CREB peptide, 1 μM ATP, 2 nM ATP-P^33 and a suitable amount of a test compound of formula (I) or (I′). After one hour, the reaction was terminated by adding 70 μl of Stop mix (1 mM ATP, 18 mg/ml streptavidin coated PVT SPA bead pH 11.0). The beads to which the phosphorylated CREB peptide is attached were allowed to settle for 30 minutes and the radioactivity of the beads was counted in a microtiterplate scintillation counter and compared with the results obtained in a control experiment (without the presence of a test compound) in order to determine the percentage of GSK3β, inhibition. The IC50 value, i.e. the concentration (M) of the test compound at which 50% of GSK3, is inhibited, was calculated from the dose response curve obtained by performing the above-described GSK3β assay in the presence of different amounts of the test compound.
Table 5 lists pIC50 values (-log IC50 (M)) obtained in the above-described test for the present compounds.

GSK3β, sequence (P49841 whole entry, species assumed): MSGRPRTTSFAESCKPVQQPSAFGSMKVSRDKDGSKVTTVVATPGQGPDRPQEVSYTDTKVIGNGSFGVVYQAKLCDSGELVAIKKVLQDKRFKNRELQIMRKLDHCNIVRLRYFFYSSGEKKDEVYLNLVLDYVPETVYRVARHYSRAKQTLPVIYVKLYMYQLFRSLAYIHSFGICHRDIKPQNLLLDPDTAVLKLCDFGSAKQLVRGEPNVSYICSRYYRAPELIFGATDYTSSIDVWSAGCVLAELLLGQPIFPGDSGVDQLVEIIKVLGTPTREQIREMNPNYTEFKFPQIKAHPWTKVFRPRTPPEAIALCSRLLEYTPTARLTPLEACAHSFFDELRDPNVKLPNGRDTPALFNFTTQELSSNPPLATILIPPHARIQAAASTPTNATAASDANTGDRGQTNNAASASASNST

IC50 [M]	SMILES
5.25e-07	Cc1cc(C)c(Nc2ccnc(Nc3ccc4[nH]ncc4c3)n2)c(C)c1 [Compound 2, N^2-(1H-indazol-5-yl)-N^4-(2,4,6-trimethylphenyl)-2,4-pyrimidinediamine]
2.95e-06	N#Cc1ccc(Nc2nccc(C(=O)N3CCNCC3)n2)cc1OCc1ccccc1 [Compound 4]
9.77e-08	Cn1ccnc1-c1ccnc(Nc2ccc(C#N)c(OCc3ccccc3)c2)n1 [Compound 6, 4-[[4-(1-methyl-1H-imidazol-2-yl)-2-pyrimidinyl]amino]-2-(phenylmethoxy)-benzonitrile]
5.01e-06	Cc1cc(C)c(Nc2ccnc(Nc3ccc4c(c3)OCO4)n2)c(C)c1 [Compound 17, N^2-benzo[1,3]dioxol-5-yl-N^4(2,4,6-trimethyl-phenyl)-2,4-pyrimidinediamine]
3.63e-06	Cc1cc(C)c(Nc2ccnc(Nc3ccc4ncccc4c3)n2)c(C)c1 [Compound 20, N^2-quinolin-6-yl-N-4-(2,4,6-trimethyl-phenyl)-2,4-pyrimidinediamine]
1.82e-06	N#Cc1ccc(Nc2nccc(NCc3cccs3)n2)cc1 [Compound 22, 4-[4-[(thiophen-2-ylmethyl)-amino]-pyrimidin-2-ylamino]-benzonitrile]
4.37e-06	CC1(C)OCC(CNc2ccnc(Nc3ccc(C#N)cc3)n2)O1 (stereo not shown) [Compound 24]
1.91e-06	CCN1CCCC1CNc1ccnc(Nc2ccc(C#N)cc2)n1 (stereo not shown) [Compound 25]
1.55e-06	N#Cc1ccc(Nc2nccc(NCc3ccco3)n2)cc1 [Compound 26, 4-[4-[(furan-2-ylmethyl)-amino]-pyrimidin-2-ylamino]-benzonitrile]
7.76e-08	Cn1ccnc1-c1ccnc(Nc2ccc(C#N)cc2)n1 [Compound 33, 4-[[4-(1-methyl-1H-imidazol-2-yl)-2-pyrimidinyl]amino]-benzonitrile]
